Results: PubChem BioAssay AID1963978 (Molecular Pharmacology Branch, DTP, NCI, 2024)

System: 616215-338-R-J1-PDC spheroids with HUVEC/MSC, viability
Assay: Anticancer human tumor 616215-338-R-J1-PDC patient-derived colon adenocarcinoma cell line growth inhibition [PI3K]
Settings: for viability, T/C: stronger effect = lower value
Summary of the method: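 We assembled tumor spheroids that included a stromal compartment of HUVEC and MSCs, then exposed them to targeted agents alone and together with PI3K pathway inhibitors. Concentration series descended by half-log from clinically achievable Cmax levels. Viability served as the endpoint.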
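Also: spheroids exposed to agents for seven days before the viability read.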

With COc1c(OCCCN2CCOCC2)ccc2c3n(c(=NC(=O)c4cnc(N)nc4)nc12)CCN3 the viability, T/C (compound 0.00316 µM) was 93.2% [middle of 8 runs], the viability, T/C (compound 0.01 µM) was 96.5% [middle of 8 runs] and the viability, T/C (compound 0.0316 µM) was 96.2% [middle of 8 runs]. For the same molecule, the viability, T/C (compound 0.1 µM) was 91.2% [middle of 8 runs], the viability, T/C (compound 0.316 µM) was 45% [middle of 8 runs] and the viability, T/C (compound 1 µM) was 26.3% [middle of 8 runs]. The IC50 (compound alone, run of 05/09/2023) was 279 nM [middle of 7 runs].
CC1(C)CCC(CN2CCN(c3ccc(C(=O)NS(=O)(=O)c4ccc(NCC5CCOCC5)c([N+](=O)[O-])c4)c(Oc4cnc5[nH]ccc5c4)c3)CC2)=C(c2ccc(Cl)cc2)C1 + CC(Nc1ncnc2nc[nH]c12)c1cc2cccc(Cl)c2c(=O)n1-c1ccccc1 was tested, and the IC50 (curve of first compound, second compound 0.0316 µM) was 4.56 µM, the IC50 (curve of first compound, second compound 0.1 µM) was 4.67 µM and the IC50 (curve of first compound, second compound 0.316 µM) was 4.79 µM. The IC50 (curve of first compound, second compound 1 µM) was 4.99 µM, the IC50 (curve of first compound, second compound 3.16 µM) was 5.14 µM and the IC50 (curve of first compound, second compound 10 µM) was 5.53 µM. It also gave a viability, T/C (second compound 0.0316 µM, first compound 0.0316 µM) of 98.3%, a viability, T/C (second compound 0.0316 µM, first compound 0.1 µM) of 105% and a viability, T/C (second compound 0.0316 µM, first compound 0.316 µM) of 110%. It also gave a viability, T/C (second compound 0.0316 µM, first compound 1 µM) of 104%, a viability, T/C (second compound 0.0316 µM, first compound 3.16 µM) of 71.3% and a viability, T/C (second compound 0.0316 µM, first compound 10 µM) of 4.22%. For the same molecule, the viability, T/C (second compound 0.1 µM, first compound 0.0316 µM) was 109%, the viability, T/C (second compound 0.1 µM, first compound 0.1 µM) was 103% and the viability, T/C (second compound 0.1 µM, first compound 0.316 µM) was 101%. The viability, T/C (second compound 0.1 µM, first compound 1 µM) was 96.7%, the viability, T/C (second compound 0.1 µM, first compound 3.16 µM) was 74.2% and the viability, T/C (second compound 0.1 µM, first compound 10 µM) was 3.61%. It also gave a viability, T/C (second compound 0.316 µM, first compound 0.0316 µM) of 107%, a viability, T/C (second compound 0.316 µM, first compound 0.1 µM) of 103% and a viability, T/C (second compound 0.316 µM, first compound 0.316 µM) of 107%. The viability, T/C (second compound 0.316 µM, first compound 1 µM) was 103%, the viability, T/C (second compound 0.316 µM, first compound 3.16 µM) was 76.6% and the viability, T/C (second compound 0.316 µM, first compound 10 µM) was 2.7%. It also gave a viability, T/C (second compound 1 µM, first compound 0.0316 µM) of 101%, a viability, T/C (second compound 1 µM, first compound 0.1 µM) of 107% and a viability, T/C (second compound 1 µM, first compound 0.316 µM) of 108%. It also gave a viability, T/C (second compound 1 µM, first compound 1 µM) of 110%, a viability, T/C (second compound 1 µM, first compound 3.16 µM) of 80.8% and a viability, T/C (second compound 1 µM, first compound 10 µM) of 2.87%. For the same molecule, the viability, T/C (second compound 3.16 µM, first compound 0.0316 µM) was 108%, the viability, T/C (second compound 3.16 µM, first compound 0.1 µM) was 111% and the viability, T/C (second compound 3.16 µM, first compound 0.316 µM) was 99.2%. The viability, T/C (second compound 3.16 µM, first compound 1 µM) was 123%, the viability, T/C (second compound 3.16 µM, first compound 3.16 µM) was 85% and the viability, T/C (second compound 3.16 µM, first compound 10 µM) was 2.42%. It also gave a viability, T/C (second compound 10 µM, first compound 0.0316 µM) of 118%, a viability, T/C (second compound 10 µM, first compound 0.1 µM) of 105% and a viability, T/C (second compound 10 µM, first compound 0.316 µM) of 105%. The viability, T/C (second compound 10 µM, first compound 1 µM) was 105%, the viability, T/C (second compound 10 µM, first compound 3.16 µM) was 94.9% and the viability, T/C (second compound 10 µM, first compound 10 µM) was 2.49%.
